What was measured:
[1] = molecular target: Serine/threonine-protein kinase PAK 3 (Homo sapiens, UniProt O75914); assay: Inhibition of PAK3-mediated MEK1 phosphorylation at Ser298 in human EBC1 cells after 2 hrs by HTRF assay; assay type: cell-based; conditions: pooled result: one value given for 3 cell lines, strains, targets or settings
[2] = molecular target: Serine/threonine-protein kinase PAK 1 (Homo sapiens, UniProt Q13153); assay: Inhibition of human recombinant GST-tagged PAK1 kinase domain-mediated 5FAM-RRRLSFAEPG phosphorylation expressed in Sf9 cells preincubated for 10 mins prior to substrate addition measured after 30 mins by microfluidic mobility shift assay
Sequence of Serine/threonine-protein kinase PAK 1 (Q13153 whole entry, the tested form may be a part): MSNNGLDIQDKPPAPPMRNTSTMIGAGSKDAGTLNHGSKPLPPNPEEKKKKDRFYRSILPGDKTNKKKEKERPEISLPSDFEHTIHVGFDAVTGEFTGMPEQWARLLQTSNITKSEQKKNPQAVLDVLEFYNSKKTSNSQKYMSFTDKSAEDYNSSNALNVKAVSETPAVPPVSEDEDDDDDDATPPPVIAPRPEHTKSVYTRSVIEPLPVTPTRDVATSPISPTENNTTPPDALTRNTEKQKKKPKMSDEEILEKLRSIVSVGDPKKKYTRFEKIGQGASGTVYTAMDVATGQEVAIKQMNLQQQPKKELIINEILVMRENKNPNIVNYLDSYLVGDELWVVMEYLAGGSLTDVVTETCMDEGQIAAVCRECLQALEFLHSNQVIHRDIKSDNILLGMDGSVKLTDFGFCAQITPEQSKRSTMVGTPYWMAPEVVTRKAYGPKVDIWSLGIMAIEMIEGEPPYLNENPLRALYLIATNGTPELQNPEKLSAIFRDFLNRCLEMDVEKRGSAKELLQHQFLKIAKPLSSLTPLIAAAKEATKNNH

Sequence of Serine/threonine-protein kinase PAK 3 (O75914 whole entry, the tested form may be a part): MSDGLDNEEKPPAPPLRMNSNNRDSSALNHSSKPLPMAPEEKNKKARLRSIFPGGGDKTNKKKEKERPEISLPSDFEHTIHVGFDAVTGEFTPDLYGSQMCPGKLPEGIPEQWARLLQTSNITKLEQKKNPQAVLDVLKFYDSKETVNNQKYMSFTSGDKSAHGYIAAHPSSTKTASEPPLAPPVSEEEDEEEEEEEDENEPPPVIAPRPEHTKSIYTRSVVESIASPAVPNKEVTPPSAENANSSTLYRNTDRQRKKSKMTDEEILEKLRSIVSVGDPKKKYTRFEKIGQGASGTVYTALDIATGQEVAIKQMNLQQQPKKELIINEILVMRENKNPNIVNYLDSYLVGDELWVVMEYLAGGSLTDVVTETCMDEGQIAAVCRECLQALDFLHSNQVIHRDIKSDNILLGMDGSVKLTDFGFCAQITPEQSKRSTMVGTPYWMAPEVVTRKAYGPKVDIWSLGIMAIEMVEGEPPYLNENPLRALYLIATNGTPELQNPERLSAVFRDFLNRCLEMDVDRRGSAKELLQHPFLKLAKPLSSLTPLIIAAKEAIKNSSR

Row | IC50 [1] [nM] | Ki [2] [nM] | SMILES
1 | 64.1 | – | COCCN(Cc1cc(F)cc2[nH]ncc12)c1nccc(Nc2cc(C3CC3)[nH]n2)n1
2 | 133 | – | C[C@H](Nc1nccc(Nc2cc(C3CCC3)[nH]n2)n1)c1ccc2[nH]ccc2c1
3 | 70.8 | – | CC(CO)N(Cc1cc(F)cc2[nH]ncc12)c1nccc(Nc2cc(C3CC3)[nH]n2)n1 (stereo not given)
4 | 244 | 5.13 | C[C@H](Nc1nccc(Nc2cc(C3CC3(F)F)[nH]n2)n1)c1ccc2[nH]cnc2c1 (stereo not given in full)

From ChEMBL document CHEMBL2384931, “PAK1: A Therapeutic Target for Cancer Treatment” (ACS Med Chem Lett, 2013)
